Reference: US9096642B2, “Therapeutic compounds for immunomodulation” (Aurigene Discovery Technologies Limited, priority 2011, dated 2015)

Tested on: B16F10 melanoma
Assay: B16F10 metastasis model (lung metastasis of B16F10 melanoma)
Type: in vivo, C57/b16J mice
Details: 5 mg/kg subcutaneously once daily; after 14 days of treatment; 0.1×10^6 B16F10 cells i.v.; versus vehicle control
Description: In vivo Efficacy of Compound 1 on Metastasis of B16F10 Melanoma
C57/b16J female mice (Aurigene, Bangalore, India) aged 6 to 8 weeks were used for the experiment. Animals were acclimatized for a week in the experimental room before conducting the experiment.
Effect of Compound 001 in B16F10 Metastasis Model
In the case of metastasis model, 0.1×10^6 B16F10 cells were injected to C57/b16J mice through i.v. Compound 001 dissolved in PBS, pH 7.4 was dosed subcutaneously at 5 mg/kg once daily. Vehicle control group of mice received only saline. Each group consisted of ten animals. Body weight and clinical signs were recorded daily. After 14 days of treatment, lung metastasis was quantitated by counting number of nodules under dissection microscope.

## Compound 001: SEQ ID NO: 3 (SNTSEFS)
  reduction in metastasis (lung metastasis quantitated by counting number of nodules): 64%
